Results published in PubChem BioAssay (NCI).
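All cell lines were grown in 96-well plates and treated with compound for 48 hours. Definition used: TGI = concentration required for complete inhibition of growth.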 Where a SMILES comes first, the peptide text is derived from it. [ ]: non-standard residue; d: D form. The star is where a group is joined. Tyr(3-Br) = N[C@@H](Cc1ccc(O)c(Br)c1)C(=O)O; Boc = CC(C)(C)OC(=O)*

Assays:
Assay in all cases: NCI anticancer screen, dose series, 48 h
KM12 colon = system: KM12 colon
OVCAR-3 ovarian = system: OVCAR-3 ovarian
RXF 393 renal = system: RXF 393 renal
M14 melanoma = system: M14 melanoma
SK-MEL-5 melanoma = system: SK-MEL-5 melanoma
HCT-116 colon = system: HCT-116 colon
HOP-92 NSCLC = system: HOP-92 NSCLC
A498 renal = system: A498 renal
ACHN renal = system: ACHN renal
NCI-H460 lung = system: NCI-H460 lung
NCI-H226 lung = system: NCI-H226 lung
NCI/ADR-RES ovarian = system: NCI/ADR-RES ovarian

SMILES	TGI (KM12 colon) [µM]	TGI (OVCAR-3 ovarian) [µM]	TGI (RXF 393 renal) [µM]	TGI (M14 melanoma) [µM]	TGI (SK-MEL-5 melanoma) [µM]	TGI (HCT-116 colon) [µM]	TGI (HOP-92 NSCLC) [µM]	TGI (A498 renal) [µM]	TGI (ACHN renal) [µM]	TGI (NCI-H460 lung) [µM]	TGI (NCI-H226 lung) [µM]	TGI (NCI/ADR-RES ovarian) [µM]
O=C(Cc1csc(-c2nc(CC(=O)NNc3ccccc3)cs2)n1)NNc1ccccc1	> 100	> 100	> 100	> 100	> 100	> 100	> 100	> 100	> 100	60.4	> 100	
CCOC(=O)c1nc2ccccc2nc1Nc1ccc(OC)c(OC)c1	> 100	> 100		> 100	> 100	> 100	> 100		> 100	> 100		> 100
CC1(C)CC(=O)C2=C(C1)NC1=C(C(=O)CC(C)(C)C1)C2c1ccc([N+](=O)[O-])cc1	> 100	> 100	> 100	> 100	> 100	> 100	> 100	> 100	> 100	> 100	> 100	
COP(=O)(Cc1ccccc1)Cc1ccccc1			> 100	> 100	> 100	> 100			> 100	> 100	> 100	> 100
CS(=O)(=O)c1c(N)c2nc(Cl)cn2c2nc3ccccc3nc12	> 100	> 100		> 100	> 100	> 100			> 100	> 100	> 100	
CCOC(=O)Cc1csc2[n+]1C(=O)/C(=C/c1cccc(OC)c1O)S2	> 100	> 100		> 100	> 100	> 100	> 100		> 100	> 100	> 100	> 100
CCN(CC)CCCn1c(=O)c2ccccc2n2c3c(=O)n(C)c(=O)n(C)c3nc12	19.8	33.6	45.8	25.1	15	21.6	16.4		4.17	4.06	14.3	47.2
C[C@]12Cc3cnn(-c4ccc(F)cc4)c3NC1CC[C@@H]1C2CC[C@@]2(C)C1CC[C@@H]2O (stereo partly specified)	18.3	46.3	5.09	23.1	15	16.6	24.7	23	29.4	16.6	28	
COc1cc(C(=O)O[C@@H]2[C@@H](OC(=O)c3cc(OC)c(OC)c(OC)c3)[C@@H](OC)O[C@@H]3CO[C@@H](c4ccccc4)O[C@@H]23)cc(OC)c1OC	> 100	> 100		> 100	> 100	> 100	> 100	> 100	> 100	> 100	> 100	> 100
CC(=O)c1ccc2c(ccc(=O)n2C)c1	> 100	> 100		> 100	> 100	> 100	> 100	> 100		> 100	> 100	
CC1(C)CC23CC(C)(C)c4cccc(c42)OCc2ccc4ccc5ccc(nc5c4n2)COc2cccc1c23	> 50	> 50		> 50	> 50	> 50	> 50	> 50	> 50	> 50	> 50	> 50
Cc1ccc(C(=O)Nc2ccc(S(=O)(=O)O)c3cc(S(=O)(=O)O)cc(S(=O)(=O)O)c23)cc1NC(=S)Nc1cc(C(=O)Nc2ccc(S(=O)(=O)O)c3cc(S(=O)(=O)O)cc(S(=O)(=O)O)c23)ccc1C		> 75		> 75	> 75	> 75		> 75	> 75	> 75	> 75	
CCN1C[C@]2(C)CC[C@H](OC)C34C1C([C@H](OC(C)=O)[C@@H]32)[C@@]1(OC)C[C@H](OC)[C@H]2C[C@@H]4[C@@H]1[C@H]2O	> 100		> 100	> 100	> 100	> 100	> 100	> 100	> 100	> 100	> 100	
CCOC(=O)Cc1csc2[n+]1C(=O)/C(=C\c1cccc(Cl)c1Cl)S2	33.5	42.1	40.4	85.1	30.6	25.7	26.8		45.5	45.8	32	33.2
NC(=O)c1coc(C2OC(CO)C(O)C2O)n1 (stereo unspecified)	> 100	> 100		> 100		> 100	> 100	> 100	> 100	> 100	> 100	
CCN(CC)CCCC(C)Nc1ccnc2ccc3nn(C)nc3c12 (stereo unspecified)	> 100			90.1	> 100	> 100		> 100	> 100	> 100	> 100	
Clc1ccccc1C1=NN(c2ccccc2)C2c3ccccc3OCC12 (stereo unspecified)	> 100	> 100	> 100		> 100	> 100	> 100	> 100	> 100	> 100		
c1ccc(C2=NOC3(c4ccccc4)SC4CCCCC4CN23)cc1 (stereo unspecified)	88.9	> 100	71.2	49.3	28.7	50.4	59.4	> 100	70.9	> 100	> 100	
NC(=O)NC(=O)c1cccc(CNc2ccc(C(=O)N[C@@H](CCC(=O)O)C(=O)O)cc2)n1	> 100	> 100		> 100	> 100	> 100	> 100		> 100	> 100	> 100	> 100
Cc1c2c(n(CCc3ccccc3)c1C)N(C)N=C(C#N)S2(=O)=O	> 100	> 100	> 100	> 100	> 100	> 100			> 100	> 100	> 100	> 100
CN(C)/N=C(/c1nc2ccc([N+](=O)[O-])cc2[nH]c1=O)C(O)c1ccco1 (stereo unspecified)	> 100	> 100	> 100	> 100	> 100	> 100	> 100		> 100	> 100	> 100	
O=C1NC(N2CCCCC2)=N/C1=C\c1cccs1	> 100	> 100	> 100	> 100		> 100	> 100		> 100		> 100	> 100
O=c1[nH]c2cc([N+](=O)[O-])ccc2nc1/C(=N/Nc1ccccc1)C(O)c1ccc(C(O)/C(=N\Nc2ccccc2)c2cnc3cc([N+](=O)[O-])ccc3n2)cc1 (stereo unspecified)	> 100	> 100	> 100	> 100	> 100	> 100	> 100	> 100	> 100	> 100		
CN(CCO)c1nc(N)cc(=O)[nH]1	> 100	> 100	> 100	> 100	> 100	> 100	> 100		> 100	> 100	> 100	
Cc1ccc2c(sc(-c3ccc4c(c3)sc(-c3ccc5c(c3)sc(-c3ccc(N(C)C)cc3)[n+]5C)[n+]4C)[n+]2C)c1S(=O)(=O)O (tested in a mixture with another compound)	> 100	> 100		> 100	> 100	> 100	> 100	> 100	> 100			> 100
COC(=O)[C@H](Cc1ccc(O)c(Br)c1)NC(=O)[C@H](Cc1ccc(O)cc1)NC(=O)OC(C)(C)C (Boc-Tyr-[Tyr(3-Br)]-OMe)	> 100	38.3		> 100		> 100	93	> 100	> 100	37.7	> 100	> 100
Cc1nn(C(=O)c2ccncc2)c2c1C(c1ccccc1)SC(N)=N2 (stereo unspecified)	> 10	> 10	> 10	> 10	> 10	> 10	> 10		> 10	> 10	> 10	> 10
COc1ccc(C2Oc3cc(OC)c(O)c(C)c3[C@H]2C)cc1 (stereo partly specified)	> 100	> 100	> 100	> 100	> 100	> 100	> 100	> 100	> 100	> 100	> 100	
Cc1ccc(N=N/C(=N/NC(=O)c2cc(Cl)ccc2C(=O)c2ccccc2)c2ccc(N(CCC#N)CCC#N)cc2C)cc1	> 100	16.4	7.24	41	33.6	31.5			> 100	13.6	38	62.1
